Reference: patent US20080199846A1, “Poultry semen extender” (priority 2007, published 2008)

Test system: 24 h-stored turkey semen
Assay: Fertility evaluation: artificial insemination of hens with 24 h-stored turkey semen
Type: in vivo
Conditions: for fertility of 24 h-stored semen versus control stored semen: 0.5, 2.5 or 10.0 mg/ml PC, wks 1-7 of egg production
Excerpt: Materials and Methods. Animals: LargeWhite breeder poults were purchased from a primary breeder and maintained under standard management conditions during the brooding and growing periods. At 28 wk of age, toms were photostimulated by increasing light exposure from a 12:12 to a 14:10 light:dark cycle to initiate semen production. Using the abdominal massage semen collection method (Burrows, W. H., and J. P. Quinn, Poult. Sci., 14: 251-254 (1935)), toms were pre-milked at 30 wk of age and then screened for semen quality at 31 and 32 wk of age prior to being designated to sperm storage treatment groups. At 32 wk of age, hens were photostimulated by increasing the daily light exposure from 6:18 to 14:10 h (light:dark) to initiate ovarian development and egg production. Hens were inseminated on Days 10 and 12 after photostimulation and then once per week for the next 12 wk of egg production. A total of 10 toms and 76 hens were used for each experimental replicate.
Semen Collection, Evaluation and Storage: Semen was collected weekly from toms and evaluated for volume, sperm concentration, sperm viability, and sperm mobility. Fresh semen was aliquoted for the control and 3 sperm treatments. Control semen was extended 1:1 with Beltsville Poultry Semen Extender (BPSE), while treated semen was extended 1:1 with BPSE supplemented with 0.5, 2.5 or 10.0 mg/ml phosphatidylcholine (PC). Extended semen was transferred to 48-well culture plates. Multiwell plates were placed in a room temperature water bath on an orbital shaker (125 rpm) and slowly cooled to 4° C. with lids loosely fitted to ensure air availability during agitation. Semen was maintained under these conditions for 24 h.
Fertility Evaluation: A total of 304 hens (76/replicate) were artificially inseminated weekly with semen stored with 0.5 mg PC/ml (n=19), 2.5 mg PC/ml (n=19), 10 mg PC/ml (n=19) or without PC (control, n=19). An additional set of hens were inseminated weekly with stored semen containing 2.5 mg/ml PC and either 0.5 mM, 5.0 mM, or 50 mM ZnCl2; prior to insemination, semen stored in the presence of ZnCl2 was treated with EDTA to chelate Zn ions and restore sperm motility. The inseminant dose for all treatments was 150×10^6 sperm. This sperm number is less than that typically inseminated for commercial production; however, I desired a system sufficiently sensitive to detect even small changes in fertility due to sperm treatment. Eggs were candled after 7 d of incubation to determine true fertility and allowed to hatch to determine hatchability. Fertility trials were replicated 4 times using different flocks.
Statistical Analysis: Prior to analysis, data were checked to determine if a transformation was necessary. As expected, variables scored as percents (e.g., fertility) required transformation. I used the standard variance stabilizing arcsine transformation, y=arcsine (√(x)), where x represents the data, recorded as a proportion, and y is the scale used in the analysis. This transformation stabilized the variances sufficiently to proceed with an analysis in a mixed models framework. Software for conducting mixed models analyses in non-Gaussian frameworks, e.g., logistic regression, is not yet readily available. The mixed models I developed, estimated using Proc Mixed (SAS Institute, 1999), considered sperm treatment and week of study as fixed factors, with hen as a random factor. In addition, since data were taken from the same individuals repeatedly, thus inducing correlation, I allowed for within-individual time series correlation using an autoregressive structure. To ensure that my sample size and design had sufficient power to accurately determine the effects of the sperm treatments, I did a small simulation study prior to finalizing the design. Power was reassessed once the study was complete, and I report those results below. I used the default REML estimation method in Proc Mixed. […]

Molecule: [Cl-].[Cl-].[Zn+2] [ZnCl2]
- fertility rates versus 5.0 or 50 mM ZnCl2 (0.5 mM ZnCl2, semen with 2.5 mg/ml PC, EDTA before insemination, p<0.05): Higher
- true fertility of 24 h-stored semen versus other ZnCl2 treatments or control semen (5.0 mM ZnCl2, wks 1-7, p<0.05): higher

Molecule: phosphatidylcholine [PC]
- hens producing 100% fertile eggs versus any other stored semen treatment (2.5 mg/ml PC, first 7 wks of egg production, p<0.05): more
- percentage of hens laying all (100%) fertile eggs versus any other sperm treatment group (2.5 mg/ml PC, wks 2-7, p<0.05): more
- predictability of fertility versus the other concentrations (10 mg/ml): less predictable fertility
- fertility rates during egg production (10 mg/ml PC treatment): varied widely
- fertility rates versus 0.5 or 2.5 mg/ml PC treatments (10 mg/ml PC, at 1, 2 8, 10, 11, and 12 wks, p<0.05): Lower
- percentage of hens laying all unfertilized eggs versus any other sperm treatment group (10.0 mg/ml PC, wks 4 and 10, p<0.05): more
- fertility of 24 h-stored semen versus control stored semen (p<0.05): improved
- fertility of 24 h-stored semen versus control stored semen (p<0.05, listed as phosphatidycholine): higher
- fertility of stored turkey semen (0.5 or 2.5 mg/ml, first 12 wks of egg production): improved
- fertility rates, 0.5 versus 2.5 mg/ml PC treatments (throughout egg production except wks 7 and 12, p>0.05): similar
- fertility of 2.5 mg/ml PC treatment versus 0.5 mg/ml (wks 7 and 12, p<0.05): higher
